Experimental findings from patent US4461906A, “Pyrrolidine 2-one derivatives” (Hoffmann-La Roche Inc., priority 1979, dated 1984) are described below.

A short description of the data set: Acute toxicity, single oral administration to mice. Conditions: mouse, in vivo, p.o.

As usually defined, the LD50 is the dose at which mortality reaches 50%. High values mean lower toxicity, low ones greater toxicity. For `COc1ccc(C(=O)N2CCC(O)C2=O)cc1` (racemic) [A], the LD50 was over 5000 mg/kg.

`COc1ccc(C(=O)N2CC(O)CC2=O)cc1` (racemic) [C, (R,S)-1-(p-Methoxybenzoyl)-4-hydroxy-2-pyrrolidinone] had an LD50 of 2000 to 4000 mg/kg.

Compound `COc1ccc(C(=O)N2CCCC2=O)cc1O` [B, 1-(3-Hydroxy-4-methoxybenzoyl)-2-pyrrolidinone] returned an LD50 of 1250 to 2500 mg/kg.
